Where only a bound is given, the exact number is not on record here.

The solubility is the dissolved amount per volume that the medium holds. A word on the half-life: it is the time needed for the level to fall by half in the phase considered. In general, MRT last refers to a mean duration of stay, worked out from the concentration-time curve. In general, EC50 refers to the midpoint of the concentration-response curve.

One data set concerns female beagle dogs. As to the kind of experiment: PYY-1119-induced vomiting in dogs. In kind it is in vivo. The settings on record: 3 nmol/kg s.c., 72 hours post-dose (lower line). Here is the method: The GIPR agonist peptide compounds of the present disclosure or vehicle (0.09% [w/v] Tween 80/10% DMSO/PBS) were administered subcutaneously (sc) at 3-10 nmol/kg to female beagle dogs (10 months old), followed by sc injections with Y2R agonist ((4-imidazolecarbonyl-Ser-D-Hyp-Iva-Pya(4)-Cha-Leu(Me)-Asn-Lys-Aib-Thr-Arg-Gln-Arg-Cha-NH2), […]), […]) at 1 hour or specified hours in the table postdose. Emetic episodes were counted for 2 hours after administration (by blinded analysis).

The nature of a further data set: physchem. The method, boiled down:
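3 mg of peptide treated with 100 μL portions of 200 mM phosphate buffer pH 7.4, sonicating/vortexing up to 1 min, with further buffer added until fully dissolved. Solubility then quantified by HPLC.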

Data set [1] is described as follows: Pharmacokinetics in dog after IV and SC dosing. The settings on record: in vivo, 3 nmol/kg. The method, boiled down:
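Dogs were dosed IV or SC at 1 mL/kg with peptide at 3 nmol/mL in 10% DMSO/0.09% Polysorbate/PBS pH 7.4. K2-EDTA plasma was sampled to 336 h, and peptide was quantified by LCMS to derive half-life.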

Another data set deals with T1, human GLP-1R (Homo sapiens, UniProt P43220).
T1 construct: HEK-293T cells overexpressing full-length human GLP-1R; FLAG (N); host or cells: HEK-293T
T1 sequence (P43220 24-463): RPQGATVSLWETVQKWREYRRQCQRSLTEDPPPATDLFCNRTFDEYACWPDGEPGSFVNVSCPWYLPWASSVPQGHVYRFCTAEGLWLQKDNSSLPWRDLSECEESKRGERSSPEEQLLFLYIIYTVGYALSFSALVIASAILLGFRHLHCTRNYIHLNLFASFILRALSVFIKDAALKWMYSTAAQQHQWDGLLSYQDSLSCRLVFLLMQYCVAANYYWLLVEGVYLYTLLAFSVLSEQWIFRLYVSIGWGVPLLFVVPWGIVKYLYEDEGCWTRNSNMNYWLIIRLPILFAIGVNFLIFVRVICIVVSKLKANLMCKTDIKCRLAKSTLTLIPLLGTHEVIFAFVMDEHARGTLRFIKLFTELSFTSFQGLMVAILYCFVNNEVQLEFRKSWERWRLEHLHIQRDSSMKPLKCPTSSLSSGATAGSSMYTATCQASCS
As to the kind of experiment: Human GLP1R agonist activity, intracellular cAMP accumulation. The class given is cell-based. Conditions: HEK-293T cells overexpressing human GLP-1R, 1 hr, read-out: Human GLP1R cAMP EC50, HEK293T. The method, boiled down: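 Frozen assay-ready cells washed and resuspended at 4×10^5 cells/mL in Krebs Ringer buffer, then incubated with compound 1 hr at room temperature in the dark. cAMP read by HTRF (anti-cAMP antibody, d2-cAMP tracer). Normalised to 1 nm GLP-1 (100%) and DMSO (0%).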
(In general: cAMP levels reflect the balance of adenylyl cyclase and phosphodiesterase activity.)

Data set [2] is described as follows: Human plasma protein binding (PPB). In kind it is in vitro ADME. Conditions: human, plasma. The gist of the method:
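Peptides spiked at 1000 nmol/L into pooled human K2-EDTA plasma adjusted to pH 7.4, incubated 30 min at 37 °C, then ultracentrifuged at ~450,000 g, 4 °C for 3 h. Fu derived from LC-MS/MS (MRM) peak area ratios, supernatant versus plasma.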

A further data set concerns male ferrets. In kind it is in vivo. Here is the method: 1. Effect of subcutaneously administered GIP receptor agonist peptide in morphine-induced acute emetic model.
To evaluate the antiemetic effect, the GIP receptor agonist peptides other than natural human GIP are subcutaneously administered into male ferrets 24 hrs before morphine administration. Up to 60 minutes after morphine administration, the condition of the ferrets is monitored to record the frequencies and time points of abdominal contraction motions, vomiting behaviors, licking with the tongue, and fidgety behavior occurring. GIP receptor agonist peptide compounds of the present disclosure dosed at 0.3-10 nmol/kg attenuated the morphine (0.6 mg/kg, s.c.)-induced emesis in the ferrets.
GIP receptor agonist peptides are dissolved with a vehicle (0.09 w/v % tween 80/10% DMSO/saline), respectively, to prepare test solutions. […] of the test solutions and the vehicle are subcutaneously administered to ferrets (4 in each group), respectively. At the time of each of 4 or 24 hours after administration, 0.6 mg/kg of morphine is subcutaneously administered.

`CC[C@H](C)[C@H](NC(=O)[C@H](CO)NC(=O)[C@H](Cc1ccc(O)cc1)NC(=O)[C@H](CC(=O)O)NC(=O)[C@H](CO)NC(=O)[C@@H](NC(=O)[C@H](Cc1ccccc1)NC(=O)[C@@H](NC(=O)CNC(=O)[C@H](CCC(=O)O)NC(=O)C(C)(C)NC(=O)[C@H](Cc1ccc(O)cc1)NC)[C@@H](C)O)[C@@H](C)CC)C(=O)N[C@@H](C)C(=O)N[C@@H](CC(C)C)C(=O)N[C@@H](CC(=O)O)C(=O)N[C@@H](CCCNC(=N)N)C(=O)N[C@@H](CCCCNC(=O)CNC(=O)CNC(=O)CNC(=O)CNC(=O)CNC(=O)CCCCCCCCCCCCCCCCC(=O)O)C(=O)N[C@@H](C)C(=O)N[C@@H](CCC(N)=O)C(=O)NC(C)(C)C(=O)N[C@@H](CC(=O)O)C(=O)N[C@@H](Cc1ccccc1)C(=O)N[C@H](C(=O)N[C@@H](CC(N)=O)C(=O)N[C@@H](Cc1c[nH]c2ccccc12)C(=O)N[C@@H](CC(C)C)C(=O)N[C@@H](CC(C)C)C(=O)N[C@@H](C)C(=O)N[C@@H](CCC(N)=O)C(=O)N[C@@H](CO)C(=O)N1CCC[C@H]1C(=O)N[C@@H](CO)C(=O)N[C@@H](CO)C(=O)NCC(=O)N[C@@H](C)C(=O)N1CCC[C@H]1C(=O)N1CCC[C@H]1C(=O)N1CCC[C@H]1C(=O)N[C@@H](CO)C(N)=O)C(C)C` [Compound 50, Me-Y-Aib-E-G-T-F-I-S-D-Y-S-I-A-L-D-R-Km-A-Q-Aib-D-F-V-N-W-L-L-A-Q-S-P-S-S-G-A-P-P-P-S-NH2]: the “Inhibition (%) of PYY-1119-induced emetic event” value in the data set with female beagle dogs is on record as 97% (3 nmol/kg). Besides, the solubility is at least 15 mg/mL in the data set “physchem” (pH 7.4) and at least 60 mg/mL in “physchem” (pH 7.4, aqueous buffer). This molecule had a half-life in data set [1] (iv) of 74 h. The same molecule returned an MRT last in data set [1] (sc) of 103 h. Also, the EC50 on human GLP-1R was 0.0204 µM. For the same molecule, in data set [2], the “free unbound peptide in human plasma (in words)” value is on record as “optimum free unbound peptide”. In the data set with male ferrets (4 hrs, 0.3 nmol/kg s.c.), the “% inhibition of emetic events at doses (nmol/kg) and timepoints shown in ferret morphine model” value is listed as 4 hrs: 27% (0.3 nmol/kg);. Also, the “effect on morphine-induced emesis in ferrets (in words)” value in the data set with male ferrets (morphine 0.6 mg/kg s.c., peptides dosed at 0.3-10 nmol/kg s.c.) was “effective in completely inhibiting the frequency of emesis”.

(Values after patent US20230143604A1, “QW DOSING OF GIP RECEPTOR AGONIST PEPTIDE COMPOUNDS AND USES THEREOF” (TAKEDA PHARMACEUTICAL COMPANY LIMITED, priority 2020, published 2023).)
